# Reference: PubChem BioAssay AID1033 (Sanford-Burnham Center for Chemical Genomics, 2008)
# Calls of active or inactive are those of the source. How the calls were made is not given here.
# Molecular target: Chaperone protein DnaK (Escherichia coli (strain K12)) (UniProt P0A6Y8)
# Experiment: binders of DnaK substrate-binding domain, biophysical, NMR, chaperone (AID 1033)
# Conditions: Purified DnaK SBD, NMR ligand binding
# Sequence of Chaperone protein DnaK (Escherichia coli (strain K12)) (P0A6Y8 whole entry, looked up, the tested form may be a part): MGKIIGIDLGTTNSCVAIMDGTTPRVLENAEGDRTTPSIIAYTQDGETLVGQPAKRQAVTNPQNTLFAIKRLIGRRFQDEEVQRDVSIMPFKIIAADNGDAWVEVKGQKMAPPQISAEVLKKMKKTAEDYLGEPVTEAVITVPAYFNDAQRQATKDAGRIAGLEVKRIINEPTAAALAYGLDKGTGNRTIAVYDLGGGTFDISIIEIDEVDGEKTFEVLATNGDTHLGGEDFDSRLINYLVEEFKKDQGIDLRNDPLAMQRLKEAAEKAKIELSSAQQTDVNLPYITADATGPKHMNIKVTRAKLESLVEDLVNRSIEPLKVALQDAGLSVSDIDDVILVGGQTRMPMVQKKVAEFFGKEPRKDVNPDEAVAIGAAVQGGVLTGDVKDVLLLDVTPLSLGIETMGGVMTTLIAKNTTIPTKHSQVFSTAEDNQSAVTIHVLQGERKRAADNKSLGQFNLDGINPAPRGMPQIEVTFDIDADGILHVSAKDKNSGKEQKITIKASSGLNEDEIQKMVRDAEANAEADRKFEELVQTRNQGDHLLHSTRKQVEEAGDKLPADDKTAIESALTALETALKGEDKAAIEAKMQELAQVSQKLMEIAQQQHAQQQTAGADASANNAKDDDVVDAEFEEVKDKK
row,Structure (SMILES),Kd
1,CCOC(=O)C1CCN(c2ncnc3nc[nH]c23)CC1,> 4 mM (inactive)
2,O=C(O)c1cc2ccccc2o1,> 4 mM (inactive)
3,CCOC(=O)c1c(C)nc2sccn12,> 4 mM (inactive)
4,COc1ccc(CN2CCNC(=O)C2CC(=O)O)cc1C (centres undefined),> 4 mM (inactive)
5,CC(=O)Oc1ccccc1N1C(=O)C=CC1=O,> 4 mM (inactive)
6,CC1=NN(C(N)=S)C(C)(C)C1,> 4 mM (inactive)
7,CCCCCCCCCCCCCCCCCCOCC(O)CO (centres undefined),> 4 mM (inactive)
8,COc1cccc2onc(N)c12,> 4 mM (inactive)
9,Nc1nc2ccccc2n1CCN1CCCC1,> 4 mM (inactive)
10,O=C(Nc1ccccn1)C(=O)N1CCCC1,> 4 mM (inactive)
11,CNC(=O)C1CC(=O)N(c2ccc(O)cc2)C1 (centres undefined),> 4 mM (inactive)
12,[O-][n+]1c2ccccc2[n+]([O-])c2cc(O)ccc21,> 4 mM (inactive)
13,NC1=NC(=O)/C(=C/c2ccc(O)c(Cl)c2)S1,> 4 mM (inactive)
14,Cc1nnc(SCC(=O)NC2CCCC2)[nH]c1=O,> 4 mM (inactive)
15,Nc1ccc(N2CCCCC2)cc1,> 4 mM (inactive)
16,Nc1ccc(Cl)nn1,> 4 mM (inactive)
17,O=C1CSC(=NC(=O)c2ccccc2)N1,> 4 mM (inactive)
18,O=C1CSC(=O)N1CN1CCOCC1,> 4 mM (inactive)
19,COc1ccc2c(=O)c(OC)c(-c3ccccc3)oc2c1,> 4 mM (inactive)
20,Cc1cc([N+](=O)[O-])cc[n+]1[O-],> 4 mM (inactive)
21,NC(=O)c1cc(N)cc(C(N)=O)c1,> 4 mM (inactive)
22,O=c1[nH]c(=O)c2[nH]cnc2[nH]1,> 4 mM (inactive)
23,CC(=O)NC(=S)Nc1ccccc1C(N)=O,> 4 mM (inactive)
24,O=C1CSC(=O)N1CN1CCCC1,> 4 mM (inactive)

row,Structure (SMILES),Kd
1,Cc1ccc(CCC(N)=O)o1,> 4 mM (inactive)
2,Cc1cc(O)c(NC(=O)c2ccco2)cc1C,> 4 mM (inactive)
3,O=c1c(-c2ccc(O)cc2)coc2cc(O)ccc12,> 4 mM (inactive)
4,CC(=O)Nn1c(=O)[nH]c2ccccc2c1=O,> 4 mM (inactive)
5,Cc1occc1C(=O)Nc1nnc(C2CCCCC2)s1,> 4 mM (inactive)
6,O=C1CCCCCN1CO,> 4 mM (inactive)
7,CCc1c(C)n([O-])c2c([n+]1=O)CCC2,> 4 mM (inactive)
8,O=C1CC(c2c[nH]c3ccccc23)C(=O)N1 (centres undefined),> 4 mM (inactive)
9,c1ccc(-c2csc(Nc3cccnc3)n2)nc1,> 4 mM (inactive)
10,CC(=O)OC(C)(C)[C@@H]1Cc2cc3ccc(=O)oc3cc2O1,> 4 mM (inactive)
11,Cc1nc2ccccc2c(=O)n1NC(=O)C1CCCCC1,> 4 mM (inactive)
12,O=C1CSC(=S)N1N1C(=O)C2C3C=CC(C3)C2C1=O (centres undefined),> 4 mM (inactive)
13,Cc1nn(CC(=O)N2CCCCC2)c(=O)c2ccccc12,> 4 mM (inactive)
14,CNC(=O)Nc1ccc(C(=O)NC)cc1,> 4 mM (inactive)
15,CCn1nccc1C(=O)Nc1ccc(Cl)cc1Cl,> 4 mM (inactive)
16,O=C(NCO)c1ccc([N+](=O)[O-])cc1,> 4 mM (inactive)
17,S=C(NCC1CCCO1)NC1CC1 (centres undefined),> 4 mM (inactive)
18,COc1c2ccoc2c(OC)c2oc(=O)ccc12,> 4 mM (inactive)
19,COc1nc(C)ccc1-c1noc(-c2ccncc2)n1,> 4 mM (inactive)
20,NC(=O)Cc1nc2ccccc2[nH]1,> 4 mM (inactive)
21,CN(C)C1CCS(=O)(=O)C1 (centres undefined),> 4 mM (inactive)
22,CC1(C)CC[C@]2(C(=O)O)CC[C@]3(C)C(=CCC4[C@@]5(C)CC[C@H](O)[C@@](C)(CO)C5CC[C@]43C)C2C1 (some centres undefined),> 4 mM (inactive)
23,CC1(C)NC(=O)N(CCOc2ccc3c(c2)CCC3)C1=O,> 4 mM (inactive)
24,CC(=O)Nc1cccc(N2C(=O)CCC2=O)c1,> 4 mM (inactive)

row,Structure (SMILES),Kd
1,CCOc1cc(S(=O)(=O)n2nc(C)cc2C)ccc1F,> 4 mM (inactive)
2,Cc1nc2cc(NC(=O)Nc3nccs3)ccc2n1C,> 4 mM (inactive)
3,C=CCc1ccc(OC(=O)c2ccccc2)c(OC)c1,> 4 mM (inactive)
4,COc1ccc2c(c1)C(NC(C)=O)C(=O)N2C (centres undefined),> 4 mM (inactive)
5,CCOc1nc(C)ccc1-c1noc(-c2ccco2)n1,> 4 mM (inactive)
6,Cc1nc2ccc(F)cc2cc1C(=O)NCc1ccco1,> 4 mM (inactive)
7,CN(C)c1nc(N)nc(Cn2ccnc2)n1,> 4 mM (inactive)
8,CC(=O)O[C@@H]1CC2C(C)(C)[C@H](O)C=C[C@]2(C)C2CC[C@@]3(C)[C@H](c4ccoc4)OC(=O)C4OC43[C@@]21C (some centres undefined),> 4 mM (inactive)
9,Nc1ccc(S(=O)(=O)Nc2ccc(F)cc2F)cc1,> 4 mM (inactive)
10,Oc1cc(O)c2c(c1)O[C@H](c1ccc(O)c(O)c1)[C@H](O)C2,> 4 mM (inactive)
11,NCc1ccc(-c2cccs2)s1,> 4 mM (inactive)
12,NCCc1c[nH]c2ccccc12,> 4 mM (inactive)
13,COc1ccccc1N1C(=N)SCC1=O,> 4 mM (inactive)
14,O=C1CSC(=Nc2cccc(C(=O)O)c2)N1,> 4 mM (inactive)
15,COc1ccc(NC(=O)CCCC(=O)O)c(OC)c1,> 4 mM (inactive)
16,COc1cc(OC)c2c(=O)c(OC)c(-c3ccc(OC)c(OC)c3)oc2c1,> 4 mM (inactive)
17,O=c1ccn([C@@H]2O[C@H](COP(=O)(O)OP(=O)(O)OP(=O)(O)O)[C@@H](O)[C@H]2O)c(=O)[nH]1,> 4 mM (inactive)
18,CN(C)C(=O)Nc1ccc(F)cc1F,> 4 mM (inactive)
19,Cc1n[nH]c(=S)n1-c1ccc(C(=O)O)cc1,> 4 mM (inactive)
20,O=C(Nc1ccc2c(c1)OCO2)c1c(F)cccc1F,> 4 mM (inactive)
21,O=C(O)c1cc(O)c2c(c1)C(=O)c1cc(O)cc(O)c1C2=O,> 4 mM (inactive)
22,Oc1ccc2nonc2c1,> 4 mM (inactive)
23,Cc1noc(C)c1C(=O)NCc1cccs1,> 4 mM (inactive)
24,Cc1nc(-c2ccccc2)ncc1CO,> 4 mM (inactive)

row,Structure (SMILES),Kd
1,COC(=O)C[C@@H]1C2(C)C(=O)[C@@H](CC3=C4CC(O)O[C@@H](c5ccoc5)[C@]4(C)CCC32)[C@H](O)C1(C)C (some centres undefined),> 4 mM (inactive)
2,c1ccc2[nH]c(NCCN3CCOCC3)nc2c1,> 4 mM (inactive)
3,Cc1cc(C)n(-c2nncn2N)n1,> 4 mM (inactive)
4,N/N=C/c1cccnc1,> 4 mM (inactive)
5,CC(=O)Nc1ccc(NC(=O)C2CC2)cc1,> 4 mM (inactive)
6,COC(=O)CC1SC(=O)NC1=O (centres undefined),> 4 mM (inactive)
7,CC1=NNC(=O)C1CCc1ccncc1 (centres undefined),> 4 mM (inactive)
8,Cc1n[nH]c(C)c1-c1ccccc1C(=O)O,> 4 mM (inactive)
9,CNc1ccccc1C(=O)O,> 4 mM (inactive)
10,CC(=O)c1sc(NC(=O)C=C(C)C)nc1C,> 4 mM (inactive)
11,Cc1cc(C)n(-c2nc(C)nc(N)n2)n1,> 4 mM (inactive)
12,COc1ccc2cnn(-c3ccccc3)c(=O)c2c1OC,> 4 mM (inactive)
13,CC(=O)NC(=S)Nc1ccc(C(C)=O)cc1,> 4 mM (inactive)
14,O=C(Nc1cccc2ncccc12)c1cccnc1,> 4 mM (inactive)
15,COc1ccc(N2C(=O)CCC2=O)c(OC)c1,> 4 mM (inactive)
16,COC(=O)[C@]1(C)CCC[C@]2(C)c3ccc(C(C)C)cc3C(=O)CC12 (some centres undefined),> 4 mM (inactive)
17,CNC(=O)Oc1ccc2c(c1)[C@]1(C)CCN(C)[C@@H]1N2C,> 4 mM (inactive)
18,O=C(O)C1CC(=O)N(Cc2ccc(F)cc2)C1 (centres undefined),> 4 mM (inactive)
19,CCC(=O)NC(=S)Nc1ccc(C(N)=O)cc1,> 4 mM (inactive)
20,O=C(c1ccc(Cl)s1)N1CCOCC1,> 4 mM (inactive)
21,O=C(NN1C(=O)c2ccccc2C1=O)c1cccs1,> 4 mM (inactive)
22,CC1=NN(c2ccc(C)cc2)C(=O)C1,> 4 mM (inactive)
23,CC(C)NC1CS(=O)(=O)CC1O (centres undefined),> 4 mM (inactive)
24,Cc1cc(C(=O)NCc2cccnc2)cs1,> 4 mM (inactive)

row,Structure (SMILES),Kd
1,O=C1OCCC1Sc1nc2ccccc2c(=O)[nH]1 (centres undefined),> 4 mM (inactive)
2,CN=C1SC(CC(=O)Nc2ccc(O)cc2)C(=O)N1C (centres undefined),> 4 mM (inactive)
3,Cc1nn2c3ccccc3nc2n(Cc2ccccc2)c1=O,> 4 mM (inactive)
4,Cc1ccc(-c2nnn(CC(=O)O)n2)cc1,> 4 mM (inactive)
5,Cc1ccccc1NC(=O)CC1NCCNC1=O (centres undefined),> 4 mM (inactive)
6,O=C(Nn1cnnc1)c1cc2c(s1)CCCCC2,> 4 mM (inactive)
7,NS(=O)(=O)c1ccc(N=Cc2ccc[nH]2)cc1,> 4 mM (inactive)
8,Nc1cc(=O)[nH]c(SCC(=O)Nc2nccs2)n1,> 4 mM (inactive)
9,C=CC1=C(C)/C(=C/c2[nH]c(Cc3[nH]c(/C=C4\NC(=O)C(C)=C4C=C)c(C)c3CCC(=O)O)c(CCC(=O)O)c2C)NC1=O,> 4 mM (inactive)
10,CC1=C/C(=C\c2c(O)[nH]c(=O)[nH]c2=O)C(C)=N1,> 4 mM (inactive)
11,Cn1nc(C(=O)Nc2cccnc2)c2ccccc2c1=O,> 4 mM (inactive)
12,O=C(O)CSc1cccc2cccnc12,> 4 mM (inactive)
13,COC(=O)CC1C(C)(C)C(OC(C)=O)[C@@H]2[C@@H](OC(C)=O)[C@]34O[C@@]2(O)[C@]1(C)C3CC[C@]1(C)C4=CC(=O)O[C@H]1c1ccoc1 (some centres undefined),> 4 mM (inactive)
14,Cc1ccc(SCc2cc(=O)n3[nH]cnc3n2)cc1,> 4 mM (inactive)
15,O=C(O)CCC(=O)NCc1cccnc1,> 4 mM (inactive)
16,O=c1cccc2n1C[C@H]1CNCC2C1,> 4 mM (inactive)
17,COc1cc([C@@H]2c3cc4c(cc3C(OC3O[C@@H]5COC(C)O[C@H]5[C@H](O)[C@H]3O)C3COC(=O)[C@@H]32)OCO4)cc(OC)c1O (some centres undefined),> 4 mM (inactive)
18,Nc1[nH]c(=S)[nH]c(=O)c1-c1ccccc1,> 4 mM (inactive)
19,COc1cc(C(=O)NCC2CCCO2)cc(OC)c1OC (centres undefined),> 4 mM (inactive)
20,O=C(NCc1ccccc1)c1cnsn1,> 4 mM (inactive)
21,CN(C)C(=O)CSc1nc(N)cc(=O)[nH]1,> 4 mM (inactive)
22,COc1cccc(N2CCNCC2)c1,> 4 mM (inactive)
23,O=C(O)CCC(=O)c1c[nH]c2ccccc12,> 4 mM (inactive)
